Measured values: PMC5515969, “Effects of 31 FDA approved small-molecule kinase inhibitors on isolated rat liver mitochondria” (Archives of Toxicology, 2016)
Where a name gives a salt, the structure may show the parent alone. Read-outs that look alike come from different tables or passages of the source. Marks after values point to notes of the source that are not given here.

Experiments:
[1] = test system: isolated rat liver mitochondria; test: Mitochondrial oxygen consumption (glutamate/malate or succinate driven, state 4 and state 3); assay type: biochemical; settings: DMSO treated samples set as 1; on State 3 respiration driven by succinate at 10XCmax: key: 0 indicates that the drug had no effects (negative); on State 3 respiration driven by succinate at 1XCmax: key: 0 indicates that the drug had no effects (negative)
Protocol: Rats were anesthetized by an intraperitoneal injection of Nembutal and the liver perfused with PBS to remove the blood. The liver was then cut into small pieces and homogenized using a Dounce type homogenizer in the ice-cold isolation buffer (IB) containing 200 mM sucrose, 10 mM Tris-MOPS, 1 mM EGTA (pH 7.4). The sample was then centrifuged at 600g for 10 min. The supernatant was further centrifuged at 7500g for 10 min, and the pellets was washed once with the IB and centrifuged again at 7500g for 10 min to collect mitochondria. […] Before drug treatment, the protein concentration was adjusted to 1 mg/ml using appropriate buffer. […] Briefly, mitochondrial and cytosolic fractions from four different preparations using four rats were diluted using the Laemmli protein loading buffer and subject to SDS-PAGE with 4–20% gradient gels. The proteins were blotted to PVDF membranes and detected using antibodies against GAPDH, ATP5A, UQCRC2, SDHB, and NDUFB8.
The aliquoted stock solutions were kept for less than one month and each tube was used only once. The KIs were added to the mitochondria at 1:1000 dilutions. […] The Cmax data were from clinical trials which used FDA recommend dosages, route of administration, and duration. […] The final concentration of DMSO for drug treatment was always 0.1%, and control treatments were 0.1% DMSO.
Briefly, mitochondria were incubated with the KIs for 5 min, and then split evenly and loaded to the sample tubes of two Oxytherm systems (Hansatech Instruments Ltd), with one system used for measuring glutamate/malate driven respiration and the other succinate-driven respiration, both of which were defined as state 4 respiration. After 3 min, ADP was added to measure the maximal oxygen consumption rate, which was defined as state 3 respiration. […] The oxygen consumption rate of DMSO-treated samples (controls) was set as 1.

[2] = test system: RCC I; test: RCC I activity in submitochondrial particles; assay type: biochemical, rat; design: key to RCC I at 10XCmax / RCC I at 100XCmax / RCC I at 50XCmax / RCC I at 30XCmax / RCC I at 20XCmax: activity relative to DMSO-treated controls (control set as 1 = 100%); settings: 10XCmax; relative to DMSO treated samples
Protocol: (§1) KIs were incubated with submitochondrial particles (1 mg/ml) for 15 min and then RCC I–V activities measured. […] The activities of DMSO-treated samples (controls) were set as 1. […] The difference between the activity from rotenone-containing buffer and rotenone-absent buffer was considered as RCC I activity. […] For measuring RCC I/V and II activity, the changes in absorbance at 340 and 600 nm, respectively, were determined every 1 min for 6 min. For measuring RCC III and RCC IV, the changes in absorbance at 550 nm were measured every 10 s for 2 min.

[3] = target: T1, RCC II (Rattus norvegicus, UniProt P21913+Q641Z9+Q6PCT8+Q920L2); test: RCC II activity in submitochondrial particles; assay type: biochemical; design: key: activity relative to DMSO-treated controls (control set as 1 = 100%); settings: relative to DMSO treated samples
T1 construct: Submitochondrial particles were prepared by subjecting the intact mitochondria to three successive freeze–thaw cycles; from tissue; host or cells: rat liver mitochondria, used as submitochondrial particles
T1 sequence (Q920L2 35-656): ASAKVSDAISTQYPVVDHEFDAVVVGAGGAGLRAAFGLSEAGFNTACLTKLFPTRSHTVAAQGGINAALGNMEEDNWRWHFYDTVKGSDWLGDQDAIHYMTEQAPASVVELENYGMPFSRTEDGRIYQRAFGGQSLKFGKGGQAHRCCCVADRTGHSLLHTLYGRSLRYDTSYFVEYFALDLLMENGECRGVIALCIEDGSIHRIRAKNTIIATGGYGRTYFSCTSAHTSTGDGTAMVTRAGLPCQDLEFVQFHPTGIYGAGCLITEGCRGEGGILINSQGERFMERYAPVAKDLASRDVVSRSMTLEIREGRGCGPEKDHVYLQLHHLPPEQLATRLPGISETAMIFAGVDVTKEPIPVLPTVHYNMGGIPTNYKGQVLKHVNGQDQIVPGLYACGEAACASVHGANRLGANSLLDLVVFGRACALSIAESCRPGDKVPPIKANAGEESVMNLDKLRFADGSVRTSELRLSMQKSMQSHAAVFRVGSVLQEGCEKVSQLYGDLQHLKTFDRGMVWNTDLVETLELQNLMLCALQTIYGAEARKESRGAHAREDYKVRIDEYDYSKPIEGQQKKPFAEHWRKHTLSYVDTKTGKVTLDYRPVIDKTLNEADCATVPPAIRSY
T1 sequence (P21913 31-282): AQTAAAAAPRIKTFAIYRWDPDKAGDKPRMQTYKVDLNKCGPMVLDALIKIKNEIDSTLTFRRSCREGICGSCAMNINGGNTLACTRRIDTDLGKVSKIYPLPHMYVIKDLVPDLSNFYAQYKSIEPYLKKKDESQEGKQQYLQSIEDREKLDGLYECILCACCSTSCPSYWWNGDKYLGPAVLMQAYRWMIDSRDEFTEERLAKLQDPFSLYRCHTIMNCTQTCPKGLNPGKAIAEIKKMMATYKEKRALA
T1 sequence (Q641Z9 1-169): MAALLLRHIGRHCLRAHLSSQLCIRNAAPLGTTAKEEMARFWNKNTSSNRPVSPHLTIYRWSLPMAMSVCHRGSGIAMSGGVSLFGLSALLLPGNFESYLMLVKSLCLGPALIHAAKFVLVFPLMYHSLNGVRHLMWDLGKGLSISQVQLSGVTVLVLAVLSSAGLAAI
T1 sequence (Q6PCT8 57-159): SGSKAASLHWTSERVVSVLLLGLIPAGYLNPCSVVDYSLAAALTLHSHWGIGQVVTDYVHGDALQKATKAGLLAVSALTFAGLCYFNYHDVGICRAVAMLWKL
Protocol: as §1

[4] = test system: RCC V; test: RCC V activity in submitochondrial particles; assay type: biochemical, rat; settings: relative to DMSO treated samples; on RCC V at 5XCmax: key: 0 indicates that the drug had no effects (negative)
Protocol: as §1

[5] = test system: isolated rat liver mitochondria; test: Mitochondrial inner membrane potential (MMP), Rhodamine 123; assay type: biochemical; settings: difference in signal between KI and DMSO treated samples at the end of experiments
From the text: Fig. 3 KI effects on mitochondrial inner membrane potential (MMP). […] In a, c, data are means and standard derivations from three separate experiments. *p < 0.05 as compared to DMSO-treated samples at the end of experiments. In b, data are means of two independent experiments

[6] = test system: isolated rat liver mitochondria; test: Mitochondrial swelling (absorbance at 535 nm); assay type: biochemical; settings: difference in signal between KI and DMSO treated samples at the end of experiments; on Swelling 5XCmax: key: 0 indicates that the drug had no effects (negative)
[7] = test system: isolated rat liver mitochondria; settings: positive control alamethicin treated samples
[8] = design: method as in product labeling; settings: ref product labeling, cited from earlier work; for Labeling for cardiotoxicity: BBW: black box warning, W&P: Warnings and Precautions
[9] = cited from earlier work
[10] = test system: isolated rat liver mitochondria; test: Mitochondrial ROS production (CM-H2DCFDA); settings: DMSO treated samples set as 1
[11] = cited from earlier work; for DILI potential (based on labeling): 1 = DILI positive, 0 = negative
[12] = read-out: Cmax at µM, therapeutic maximal blood concentration, ref product labeling
[13] = therapeutic maximal blood concentration, ref product labeling

Row | Compound | State 3 respiration driven by succinate at 1XCmax ([1]; 1XCmax) | State 4 respiration driven by succinate at 1XCmax ([1]; 1XCmax) | State 3 respiration driven by succinate at 2.5XCmax ([1]; 2.5XCmax) | State 4 respiration driven by succinate at 2.5XCmax ([1]; 2.5XCmax) | State 3 respiration driven by succinate at 5XCmax ([1]; 5XCmax) | State 4 respiration driven by succinate at 5XCmax ([1]; 5XCmax) | State 3 respiration driven by succinate at 10XCmax ([1]; 10XCmax) | State 4 respiration driven by succinate at 10XCmax ([1]; 10XCmax) | RCC I at 10XCmax [2] | RCC II at 1.0XCmax [3] | RCC II at 2.5XCmax [3] | RCC II at 5XCmax [3] | RCC II at 10XCmax [3] | MMP measured by Rhodamine 123 at 1XCmax [5] | MMP measured by Rhodamine 123 at 2.5XCmax [5] | MMP measured by Rhodamine 123 at 5XCmax [5] | MMP measured by Rhodamine 123 at 10XCmax [5] | Swelling 1XCmax [6] | Swelling 2.5XCmax [6] | Cytochrome c release 1XCmax [7] | further results
1 | Cc1cn(-c2cc(NC(=O)c3ccc(C)c(Nc4nccc(-c5cccnc5)n4)c3)cc(C(F)(F)F)c2)cn1 [Nilotinib] | 0 | 0 | 0 | 0 | 0 | 0 | 0 | 0 | 0 | 0 | 0 | 0 | 0 | 0 | 0 | 0 | 0 | 0 | 0 | 0 | RCC V at 5XCmax [4]: 0; Swelling 5XCmax [6]: 0; Swelling 10XCmax [6]: 0; Cytochrome c release 2.5XCmax [7]: 0; Cytochrome c release 5XCmax [7]: 0; Cytochrome c release 10XCmax [7]: 0; Labeling for cardiotoxicity [8]: BBW: QT Interval Prolongation; Potential for cardiotoxicity (based on labeling) [8]: 1; Cmax ([9]; human therapeutic Cmax at FDA recommended dosages, ref product labeling and drug approval packages at the official FDA website): 4.27 µM; Cmax [9, 12]: 4.27 µM; Cmax [9, 13]: 2260 ng/mL; ROS measured by CM-H2DCFDA at 1XCmax [10]: 0; ROS measured by CM-H2DCFDA at 2.5XCmax [10]: 0; ROS measured by CM-H2DCFDA at 5XCmax [10]: 0; ROS measured by CM-H2DCFDA at 10XCmax [10]: 0
2 | CS(=O)(=O)CCNCc1ccc(-c2ccc3ncnc(Nc4ccc(OCc5cccc(F)c5)c(Cl)c4)c3c2)o1 [lapatinib ditosylate monohydrate] | 0 | 0 | 0 | 0 | 0 | 0 | 0 | 0 | 0 | 0 | 0 | 0 | 0 | 0 | 0 | 0 | 0 | 0 | 0 | 0 | RCC V at 5XCmax [4]: 0; Swelling 5XCmax [6]: 0; Swelling 10XCmax [6]: 0; Cytochrome c release 2.5XCmax [7]: 0; Cytochrome c release 5XCmax [7]: 0; Cytochrome c release 10XCmax [7]: 7.91±2.25 percentage of the positive control group; Labeling for cardiotoxicity [8]: W&P: Decreased Left Ventricular Ejection Fraction; QT Prolongation; Potential for cardiotoxicity (based on labeling) [8]: 1; Cmax [9, 13]: 2430 ng/mL; DILI potential (based on labeling) ([11]; ref product labeling): 1; Labeling for DILI ([11]; in vivo): BBW: fatal DILI; ROS measured by CM-H2DCFDA at 1XCmax [10]: 0; ROS measured by CM-H2DCFDA at 2.5XCmax [10]: 0; ROS measured by CM-H2DCFDA at 5XCmax [10]: 0; ROS measured by CM-H2DCFDA at 10XCmax [10]: 0
3 | CNC(=O)c1cc(Oc2ccc(NC(=O)Nc3ccc(Cl)c(C(F)(F)F)c3)cc2)ccn1 [sorafenib tosylate] | 0 | 1.50±0.21 | 0.62±0.05 | 1.43±0.06 | 0.40±0.01 | 0 | 0 | 3.34±0.45 | 0 | 0 | 0 | 0 | 0 | 4037±631* | 4075±739* | 3781±744* | 3380±680* | 0 | 0.29±0.02 | 0 | State 4 respiration driven by glutamate/malate at 1XCmax ([1]; 1XCmax): 2.55±0.27; State 3 respiration driven by glutamate/malate at 2.5XCmax ([1]; 2.5XCmax): 1.57±0.06; State 4 respiration driven by glutamate/malate at 2.5XCmax ([1]; 2.5XCmax): 4.92±0.09; State 4 respiration driven by glutamate/malate at 5XCmax ([1]; 5XCmax): 3.69±0.12; State 4 respiration driven by glutamate/malate at 10XCmax ([1]; 10XCmax): 5.00±1.92; RCC V at 10XCmax ([4]; 10XCmax): 65.55±6.34; Cytochrome c release 2.5XCmax [7]: 0; Cytochrome c release 5XCmax [7]: 12.12±5.17 percentage of the positive control group; Labeling for cardiotoxicity [8]: W&P: Cardiac Ischemia and/or Infarction; QT Interval Prolongation; Potential for cardiotoxicity (based on labeling) [8]: 1; Cmax [9, 12]: 4.3 µM; DILI potential (based on labeling) ([11]; ref product labeling): 1; Labeling for DILI ([11]; BBW: black box warning, W&P: Warnings and Precautions, ref product labeling): W&P: fatal DILI; ROS measured by CM-H2DCFDA at 1XCmax [10]: 0; ROS measured by CM-H2DCFDA at 2.5XCmax [10]: 0; ROS measured by CM-H2DCFDA at 5XCmax [10]: 0; ROS measured by CM-H2DCFDA at 10XCmax [10]: 0
